5 cell lines from the supplement of paper PMC10307832 can be followed below.

Holding throughout (assay): relative viability (nuclei count vs DMSO), 5 days (fraction); higher = more cells survive
Compound in the assay “IMD-0354 + Palbociclib”: O=C(Nc1cc(C(F)(F)F)cc(C(F)(F)F)c1)c1cc(Cl)ccc1O [IMD-0354] + CC(=O)c1c(C)c2cnc(Nc3ccc(N4CCNCC4)cn3)nc2n(C2CCCC2)c1=O [Palbociclib] (partner 0.5 µM)
In outline: (§1)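 The day after seeding in 1536-well plates, lung cancer cell lines were treated by pin tool with a single drug, or with a fixed anchor-drug dose together with five library-drug doses (not always all listed) in √10 steps. After 5 days, a combined fix-and-stain solution (final 0.05% Triton X-100, 1% formaldehyde, 1 ug/ml Hoechst) was added. Nuclei counted on 4× images gave relative viability as treated counts over vehicle counts, reported as the median of duplicate plates.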

Compound in the assay “IMD-0354 + Tozasertib”: O=C(Nc1cc(C(F)(F)F)cc(C(F)(F)F)c1)c1cc(Cl)ccc1O [IMD-0354] + Cc1cc(Nc2cc(N3CCN(C)CC3)nc(Sc3ccc(NC(=O)C4CC4)cc3)n2)n[nH]1 [Tozasertib] (partner 0.1 µM)
In outline:
as §1

Compound in the assay “IMD-0354 + Alpelisib”: O=C(Nc1cc(C(F)(F)F)cc(C(F)(F)F)c1)c1cc(Cl)ccc1O [IMD-0354] + Cc1nc(NC(=O)N2CCC[C@H]2C(N)=O)sc1-c1ccnc(C(C)(C)C(F)(F)F)c1 [Alpelisib] (partner 2 µM)
In outline:
as §1

Compound in the assay “IMD-0354 + Phenformin”: O=C(Nc1cc(C(F)(F)F)cc(C(F)(F)F)c1)c1cc(Cl)ccc1O [IMD-0354] + N=C(N)NC(=N)NCCc1ccccc1 [Phenformin] (partner 250 µM)
In outline: as §1

For LOU-NH91, the relative viability with IMD-0354 + Palbociclib (first compound 0.04 µM) is 0.538; in the assay with IMD-0354 + Palbociclib (first compound 0.1265 µM), 0.464; in the assay with IMD-0354 + Palbociclib (first compound 0.4 µM), 0.242; in the assay with IMD-0354 + Palbociclib (first compound 1.265 µM) it was 0.188; in the assay with IMD-0354 + Palbociclib (first compound 4 µM), 0.243; with IMD-0354 + Tozasertib (first compound 0.04 µM), 0.774. For the same cell line, the relative viability with IMD-0354 + Tozasertib (first compound 0.1265 µM) is 0.626; with IMD-0354 + Tozasertib (first compound 0.4 µM), 0.523; with IMD-0354 + Tozasertib (first compound 1.265 µM), 0.184; in the assay with IMD-0354 + Tozasertib (first compound 4 µM), 0.174; with IMD-0354 + Alpelisib (first compound 0.04 µM), 0.755; in the assay with IMD-0354 + Alpelisib (first compound 0.1265 µM) it was 0.729. Moreover, the relative viability with IMD-0354 + Alpelisib (first compound 0.4 µM) amounted to 0.541; in the assay with IMD-0354 + Alpelisib (first compound 1.265 µM), 0.244; with IMD-0354 + Alpelisib (first compound 4 µM), 0.231; with IMD-0354 + Phenformin (first compound 0.04 µM), 0.498; in the assay with IMD-0354 + Phenformin (first compound 0.1265 µM), 0.393; in the assay with IMD-0354 + Phenformin (first compound 0.4 µM), 0.208. The relative viability with IMD-0354 + Phenformin (first compound 1.265 µM) is 0.143; in the assay with IMD-0354 + Phenformin (first compound 4 µM), 0.166.
Consider LU99A, for which the relative viability in the assay with IMD-0354 + Palbociclib (first compound 0.04 µM) is 0.295; with IMD-0354 + Palbociclib (first compound 0.1265 µM) it was 0.418; with IMD-0354 + Palbociclib (first compound 0.4 µM), 0.325; with IMD-0354 + Palbociclib (first compound 1.265 µM) it was 0.279; with IMD-0354 + Palbociclib (first compound 4 µM) it was 0.179; with IMD-0354 + Tozasertib (first compound 0.04 µM), 0.326. Moreover, the relative viability in the assay with IMD-0354 + Tozasertib (first compound 0.1265 µM) was found to be 0.254; with IMD-0354 + Tozasertib (first compound 0.4 µM), 0.267; in the assay with IMD-0354 + Tozasertib (first compound 1.265 µM), 0.244; in the assay with IMD-0354 + Tozasertib (first compound 4 µM) it was 0.218; with IMD-0354 + Alpelisib (first compound 0.04 µM), 0.517; with IMD-0354 + Alpelisib (first compound 0.1265 µM), 0.493. Moreover, the relative viability with IMD-0354 + Alpelisib (first compound 0.4 µM) worked out at 0.345; in the assay with IMD-0354 + Alpelisib (first compound 1.265 µM) it was 0.247; with IMD-0354 + Alpelisib (first compound 4 µM) it was 0.195; with IMD-0354 + Phenformin (first compound 0.04 µM), 0.529; in the assay with IMD-0354 + Phenformin (first compound 0.1265 µM) it was 0.826; in the assay with IMD-0354 + Phenformin (first compound 0.4 µM) it was 0.417. For the same cell line, the relative viability with IMD-0354 + Phenformin (first compound 1.265 µM) stood at 0.218; with IMD-0354 + Phenformin (first compound 4 µM) it was 0.265.
In the case of NCI-H522, the relative viability in the assay with IMD-0354 + Palbociclib (first compound 0.04 µM) worked out at 1.14; with IMD-0354 + Palbociclib (first compound 0.1265 µM) it was 0.87; with IMD-0354 + Palbociclib (first compound 0.4 µM) it was 0.881; with IMD-0354 + Palbociclib (first compound 1.265 µM) it was 0.994; with IMD-0354 + Palbociclib (first compound 4 µM) it was 0.458; with IMD-0354 + Tozasertib (first compound 0.04 µM) it was 0.58. Further, the relative viability in the assay with IMD-0354 + Tozasertib (first compound 0.1265 µM) stood at 0.513; with IMD-0354 + Tozasertib (first compound 0.4 µM) it was 0.5; with IMD-0354 + Tozasertib (first compound 1.265 µM), 0.576; in the assay with IMD-0354 + Tozasertib (first compound 4 µM), 0.404; with IMD-0354 + Phenformin (first compound 0.04 µM), 0.614; in the assay with IMD-0354 + Phenformin (first compound 0.1265 µM), 0.666. In addition, the relative viability in the assay with IMD-0354 + Phenformin (first compound 0.4 µM) came out at 0.464; in the assay with IMD-0354 + Phenformin (first compound 1.265 µM), 0.61; with IMD-0354 + Phenformin (first compound 4 µM), 0.383.
NCI-H596: the relative viability was 1.02 with IMD-0354 + Tozasertib (first compound 0.04 µM); 0.946 in the assay with IMD-0354 + Tozasertib (first compound 0.1265 µM); 0.599 with IMD-0354 + Tozasertib (first compound 0.4 µM); 0.955 with IMD-0354 + Tozasertib (first compound 1.265 µM); 0.503 with IMD-0354 + Tozasertib (first compound 4 µM); 0.484 with IMD-0354 + Alpelisib (first compound 0.04 µM). For the same cell line, the relative viability in the assay with IMD-0354 + Alpelisib (first compound 0.1265 µM) was determined as 0.458; in the assay with IMD-0354 + Alpelisib (first compound 0.4 µM), 0.466; with IMD-0354 + Alpelisib (first compound 1.265 µM) it was 0.528; in the assay with IMD-0354 + Alpelisib (first compound 4 µM), 0.326; with IMD-0354 + Phenformin (first compound 0.04 µM), 0.852; in the assay with IMD-0354 + Phenformin (first compound 0.1265 µM), 0.748. In addition, the relative viability with IMD-0354 + Phenformin (first compound 0.4 µM) was found to be 0.547; with IMD-0354 + Phenformin (first compound 1.265 µM) it was 0.898; in the assay with IMD-0354 + Phenformin (first compound 4 µM), 0.318.
Turning to NCI-H1299, the relative viability was determined as 1.01 with IMD-0354 + Alpelisib (first compound 0.04 µM); 1.02 in the assay with IMD-0354 + Alpelisib (first compound 0.1265 µM); 0.709 with IMD-0354 + Alpelisib (first compound 0.4 µM); 0.276 with IMD-0354 + Alpelisib (first compound 1.265 µM); 0.194 with IMD-0354 + Alpelisib (first compound 4 µM).
